{
  "source": "patent EP0454058B1",
  "about": "“Use of anthraquinone derivatives in the prophylaxis and treatment of viral diseases” (LOMAPHARM Rudolf Lohmann GmbH KG Pharmazeutische Fabrik, priority 1990, dated 1991)",
  "format_in_all_cases": "cell-based",
  "key": {"[1]": {"test_system": "Herpes simplex-Viren", "assay": "Plaque inhibition test (Plaquehemmungstest, agar diffusion test)", "conditions": "read-out: Hemmhofdurchmesser (mm)", "source_text": "Der Plaquehemmungstest (Agardiffusionstest) wird nach der Methode von E. C. Herrmann et al., 1960 (6) durchgeführt. Auch bei diesem Test werden virusinfizierte tierische Zellkulturen verwendet. In diesem Fall wird in Petrischalen durch ein mit Hilfe von Agar verfestigtes Medium das unkontrollierte Ausbreiten der Viren verhindert. Es kommt zu einer lokal begrenzten Zerstörung der Zellen, die nach einer Färbung als Löcher im Zellrasen erkennbar ist. Die Testsubstanzen werden auf Filterpapierblättchen aufgetragen und auf das feste Medium aufgelegt. In einem Bereich um diese Blättchen werden durch die virustatische Wirkung der Testsubstanz die Zellen geschützt und es entstehen so kreisförmige Hemmzonen. Die Größe der Hemmzone kann als Maß für die virustatische Wirksamkeit ausgewertet werden.\nDurchführung: Ein Monolayer von MK2-, HeLa-, Rita-Zellen oder einer anderen geeigneten Zellinie wird in einer Petrischale mit Viren infiziert, so daß eine große Zahl von einzelnen Plaques entsteht. Nach einer Bindung von 45 Minuten bei Zimmertemperatur wird der Zellrasen einmal mit phosphatgepufferter Kochsalzlösung gewaschen und mit einer Agar-Oberschicht versehen. Auf diese Agarschicht werden Filterpapierblättchen (10 mm Durchmesser) gelegt, die mit einer Lösung der Testsubstanz getränkt sind. Nach 48 bis 72 Stunden Bebrütung bei 37 °C in CO2-Atmosphäre (5 %) wird eine zweite Oberschicht darübergegeben, die den Vitalfarbstoff Tetrazoliumchlorid enthält. Nach weiteren 24 Stunden Bebrütung wird der Hemmhofdurchmesser, unterteilt in \"toxische Zone\" und \"therapeutische Zone\", in mm ausgemessen."}, "[2]": {"test_system": "Herpes simplex-Viren", "assay": "Dye test (Farbtest, crystal violet): virustatic effect in virus-infected cell cultures", "conditions": "for Extinktion bei 546 nm Hela-Zellen mit Herpes-Virus: virus control 0,144, cell control 0,648", "source_text": "(§1) Der Farbtest, wie von Armstrong, 1971 (5) beschrieben, beruht darauf, daß die durch die Viren zerstörten Zellen nicht mehr gefärbt werden können. Je höher der Anteil an intakten Zellen nach der Inkubation mit dem jeweiligen Virus durch die virustatische Wirkung einer Substanz ist, um so mehr Farbstoff wird gebunden. Der Farbstoff läßt sich aus den gefärbten Zellen extrahieren und seine Menge kann in einem Photometer, z. B. bei Verwendung von Kristallviolett bei 546 nm, gemessen werden. Damit erlaubt der Test meßbare und reproduzierbare Angaben sowohl über die virustatische, wie auch durch Parallelversuche mit Zellkulturen ohne Viren über die cytotoxische Wirkung von Substanzen.\n(§2) Durchführung: 10 mg der Testsubstanz wurden in 10 ml Ethylalkohol gelöst. Unter Verwendung des Mediums für die Zellkultur wurde eine Verdünnungsreihe mit Konzentrationen von 1,56 µg/ml bis 25 µg/ml Testsubstanz eingestellt. Diese Lösungen werden auf 24 Stunden alte MK2-, HeLa-, Rita-Zellen oder andere geeignete Zellen gegeben, nachdem diese vorher 45 Minuten zur Infektion mit einer Suspension von Viren überschichtet worden waren. Zur Prüfung der Cytotoxizität werden Parallelansätze ohne Viruszugabe analog mit den verschiedenen Verdünnungsstufen der Prüfsubstanz überschichtet. Die Versuchsansätze mit Virus und Testsubstanz bzw. nur der Testsubstanz werden 72 Stunden bei 37 °C bebrütet. Anschließend werden die Zellen fixiert und für 15 Minuten mit Kristallviolettlösung gefärbt. Nach Spülen mit Wasser wird der an die Zellen gebundene Farbstoff mit Ethanol extrahiert und in einem Photometer die Extinktion bei 546 nm (Absorption für Kristallviolett) gemessen.\nZur Auswertung werden die Extinktionen und auch die Konzentration mit einem Zellschutz von 50 % berechnet.\nFalls die Testsubstanz keine wesentlichen cytotoxischen Eigenschaft besitzt, kann die antivirale Schutzwirkung nach nach folgender Formel in Prozent berechnet werden: (E3 - E2)/(E1 - E2)x 100 [formula] E1 = Extinktion der Zellkontrolle E2 = Extinktion der Viruskontrolle E3 = Extinktion der Versuchsansätze mit Virus und Alizarin"}, "[3]": {"test_system": "Hela-Zellen", "assay": "Dye test (Farbtest), parallel runs without virus: cytotoxicity", "conditions": "for Extinktion bei 546 nm Hela-Zellen: cells without virus, 72 h", "source_text": "as §1, §2"}, "[4]": {"test_system": "Cytomegalie-Viren", "assay": "Plaque reduction test (Plaquereduktionstest) in human foreskin fibroblasts", "conditions": "Fibroblast, plaque count versus virus control, read-out: Hemmung (%)", "source_text": "Für die Prüfung der Wirksamkeit gegenüber Cytomegalie-Viren (CMV) werden mit diesen Viren infizierte menschliche Vorhautfibroblasten eingesetzt. Nach der Inkubation werden die entstandenen Plaques angefärbt und ausgezählt. Zur Auswertung wird die Plaquezahl unter dem Einfluß einer definierten Substanzmenge mit der Viruskontrolle verglichen.\nMit einer ähnlichen Versuchsanordnung wie im Plaquehemmungstest kann die Wirkung des Alizarins gegen Cytomegalie-Viren bestimmt werden (siehe Plaquereduktionstest, Methode 3). Die Untersuchung für das Cytomegalie-Virus in einer Zellinie von menschlichen Vorhautfibroblasten ergab die in Tabelle II angegebenen Werte für die Hemmung im Vergleich zur Viruskontrolle. Zur Auswertung wurden hier die gebildeten Plaques gezählt und im Vergleich zur Viruskontrolle ausgewertet (siehe Tabelle II). Tabelle II"}, "[5]": {"test_system": "HHV 6 (Human herpes-Virus Typ 6)", "assay": "Virus replication in human lymphocyte cultures, passages in presence of substance", "conditions": "10 µg/ml, after three passages", "source_text": "In weiteren Versuchen wurde die Wirkung von Alizarin auf die Vermehrung von HHV 6 (Human herpes-Virus Typ 6) untersucht. Diese Viren lassen sich aus dem Blut von immunsupprimierten Patienten mit Leukämie, Lymphomen oder Aids sowie von Kindern mit Roseola infantum isolieren.\nDie Testung erfolgte in menschlichen Lymphocytenkulturen."}, "[6]": {"conditions": "Substanzmenge 10 µg/ml pro Testblättchen, Rita-Zellen"}, "[7]": {"conditions": "Substanzmenge 20 µg/ml pro Testblättchen, Rita-Zellen"}, "[8]": {"conditions": "Substanzmenge 40 µg/ml pro Testblättchen, Rita-Zellen"}},
  "note": "Where two headings read alike, the source gives them in different places.",
  "data": [
    {"molecule": "O=C1c2cccc(O)c2C(=O)c2c(O)cccc21", "note": "[Chrysazin (4), 1,8-Dihydroxyanthrachinon]", "values": [
      {"measurement": "zone of inhibition at 10 µg/mL", "setting": "[1]; [6]", "value": 8, "unit": "mm"},
      {"measurement": "zone of inhibition at 20 µg/mL", "setting": "[1]; [7]", "value": 12, "unit": "mm"},
      {"measurement": "zone of inhibition at 40 µg/mL", "setting": "[1]; [8]", "value": 16, "unit": "mm"}
    ]},
    {"molecule": "O=C1c2ccccc2C(=O)c2c1cc(S(=O)(=O)O)c(O)c2O", "note": "[Alizarinsulfonsäure (2), 9,10-Dihydro-3,4-dihydroxy-9,10-dioxo-2-anthracensulfonsäure.Mononatriumsalz]", "values": [
      {"measurement": "zone of inhibition at 10 µg/mL", "setting": "[1]; [6]", "value": 10, "unit": "mm"},
      {"measurement": "zone of inhibition at 20 µg/mL", "setting": "[1]; [7]", "value": 12, "unit": "mm"},
      {"measurement": "zone of inhibition at 40 µg/mL", "setting": "[1]; [8]", "value": 19, "unit": "mm"}
    ]},
    {"molecule": "O=C1c2ccccc2C(=O)c2c(O)ccc(O)c21", "note": "[Chinizarin (3), 1,4-Dihydroxyanthrachinon]", "values": [
      {"measurement": "zone of inhibition at 10 µg/mL", "setting": "[1]; [6]", "value": 11, "unit": "mm"},
      {"measurement": "zone of inhibition at 20 µg/mL", "setting": "[1]; [7]", "value": 13, "unit": "mm"},
      {"measurement": "zone of inhibition at 40 µg/mL", "setting": "[1]; [8]", "value": 16, "unit": "mm"}
    ]},
    {"molecule": "O=C1c2ccccc2C(=O)c2c1ccc(O)c2O", "note": "[Alizarin, 1,2-Dihydroxy-9,10-anthracendion]", "values": [
      {"measurement": "Extinktion bei 546 nm Hela-Zellen mit Herpes-Virus", "setting": "[2]; 25 µg/ml, 72 h", "value": "0,235"},
      {"measurement": "Extinktion bei 546 nm Hela-Zellen mit Herpes-Virus", "setting": "[2]; 3,125 µg/ml, 72 h", "value": "0,329"},
      {"measurement": "Extinktion bei 546 nm Hela-Zellen mit Herpes-Virus", "setting": "[2]; 1,56 µg/ml, 72 h", "value": "0,206"},
      {"measurement": "Extinktion bei 546 nm Hela-Zellen mit Herpes-Virus", "setting": "[2]; 6,25 µg/ml, 72 h", "value": "0,403"},
      {"measurement": "Extinktion bei 546 nm Hela-Zellen mit Herpes-Virus", "setting": "[2]; 12,5 µg/ml, 72 h", "value": "0,338"},
      {"measurement": "inhibition at 3.125 µg/mL", "setting": "[2]; 72 h, 3.125 µg/mL, Hela-Zellkulturen, read-out: Zellschutz (%)", "value": 37, "unit": "%"},
      {"measurement": "inhibition at 25 µg/mL", "setting": "[2]; 72 h, 25 µg/ml, Hela-Zellkulturen, read-out: Zellschutz (%)", "value": 18, "unit": "%"},
      {"measurement": "inhibition at 1.56 µg/mL", "setting": "[2]; 72 h, 1,56 µg/ml, Hela-Zellkulturen, read-out: Zellschutz (%)", "value": 12, "unit": "%"},
      {"measurement": "inhibition at 6.25 µg/mL", "setting": "[2]; 72 h, 6,25 µg/ml, Hela-Zellkulturen, read-out: Zellschutz (%)", "value": 51, "unit": "%"},
      {"measurement": "inhibition at 12.5 µg/mL", "setting": "[2]; 72 h, 12,5 µg/ml, Hela-Zellkulturen, read-out: Zellschutz (%)", "value": 38, "unit": "%"},
      {"measurement": "EC50", "setting": "[2]; experiment of Tabelle I a, read-out: Konzentration, die einen Zellschutz von 50 % bewirkt", "value": 5.96, "unit": "µg/mL"},
      {"measurement": "IC50", "setting": "[2]; in presence of 10 % Serum, read-out: 50 % Hemmwert", "value": 11.3, "unit": "µg/mL"},
      {"measurement": "IC50", "setting": "[2]; mean of four experiments, read-out: Mittelwert für eine 50 %ige Hemmung der Virusvermehrung", "value": 4.87, "unit": "µg/mL"},
      {"measurement": "Extinktion bei 546 nm Hela-Zellen", "setting": "[3]; 25 µg/ml", "value": "0,328"},
      {"measurement": "Extinktion bei 546 nm Hela-Zellen", "setting": "[3]; 3,125 µg/ml", "value": "0,693"},
      {"measurement": "Extinktion bei 546 nm Hela-Zellen", "setting": "[3]; 1,56 µg/ml", "value": "0,655"},
      {"measurement": "Extinktion bei 546 nm Hela-Zellen", "setting": "[3]; 6,25 µg/ml", "value": "0,634"},
      {"measurement": "Extinktion bei 546 nm Hela-Zellen", "setting": "[3]; 12,5 µg/ml", "value": "0,510"},
      {"measurement": "cytotoxische Wirkung", "setting": "[3]; at the higher concentrations of Tabelle I a / I b", "value": "schwache cytotoxische Wirkung"},
      {"measurement": "inhibition at 5 µg/mL", "setting": "[4]; 5 µg/ml", "value": 10, "unit": "%"},
      {"measurement": "inhibition at 10 µg/mL", "setting": "[4]; 10 µg/ml", "value": 60, "unit": "%"},
      {"measurement": "inhibition at 15 µg/mL", "setting": "[4]; 15 µg/ml", "value": 100, "unit": "%"},
      {"measurement": "inhibition at 20 µg/mL", "setting": "[4]; 20 µg/ml", "value": 100, "unit": "%"},
      {"measurement": "Virus nachweisbar in den Zellen", "setting": "[5]", "value": "kein Virus mehr nachweisbar"},
      {"measurement": "zone of inhibition at 10 µg/mL", "setting": "[1]", "value": 14, "unit": "mm"},
      {"measurement": "zone of inhibition at 20 µg/mL", "setting": "[1]", "value": 18, "unit": "mm"},
      {"measurement": "zone of inhibition at 40 µg/mL", "setting": "[1]", "value": 20, "unit": "mm"}
    ]},
    {"molecule": "O=C1c2ccc(O)cc2C(=O)c2ccc(O)cc21", "note": "[Anthraflavinsäure (5), 2,6-Dihydroxyanthrachinon]", "values": [
      {"measurement": "zone of inhibition at 10 µg/mL", "setting": "[1]; [6]", "value": 9, "unit": "mm"},
      {"measurement": "zone of inhibition at 20 µg/mL", "setting": "[1]; [7]", "value": 13, "unit": "mm"},
      {"measurement": "zone of inhibition at 40 µg/mL", "setting": "[1]; [8]", "value": 15, "unit": "mm"}
    ]}
  ]
}
